In ChEMBL document CHEMBL6083260, “Dizocilpine derivatives as neuroprotective NMDA receptor antagonists without psychomimetic side effects” (Eur J Med Chem, 2024):
Active and inactive are the calls of the source. The calls are words filed in the database; no cut-off is given here.

Assays:
[1] = Cytotoxicity against CHO-K1 cells assessed as reduction in cell viability incubated for 24 hrs by MTT assay; assay type: toxicity, cell-based; settings: Chinese hamster (Cricetulus griseus)
[2] = molecular target: T1, Glutamate NMDA receptor; GRIN1/GRIN2B (Homo sapiens, UniProt Q05586+Q13224); assay: Antagonist activity at human GluN1/GluN2B receptor expressed in HEK293 cells assessed as inhibition of L-glutamate induced response at 3 uM at -60 mV membrane potential by patch clamp electrophysiology analysis; assay type: cell-based
[3] = molecular target: T2, Glutamate NMDA receptor; GRIN1/GRIN2A (Homo sapiens, UniProt Q05586+Q12879); assay: Antagonist activity at human GluN1/GluN2A receptor expressed in HEK293 cells assessed as inhibition of L-glutamate induced response at 3 uM at -60 mV membrane potential by patch clamp electrophysiology analysis; assay type: cell-based
[4] = Inhibition of human recombinant AChE measured by Ellman's method
[5] = molecular target: T2, Glutamate NMDA receptor; GRIN1/GRIN2A; assay: Antagonist activity at human GluN1/GluN2A receptor expressed in HEK293 cells assessed as inhibition of L-glutamate induced response at -40 mV membrane potential by patch clamp electrophysiology analysis; assay type: cell-based
[6] = molecular target: T2, Glutamate NMDA receptor; GRIN1/GRIN2A; assay: Antagonist activity at human GluN1/GluN2A receptor expressed in HEK293 cells assessed as inhibition of L-glutamate induced response at -60 mV membrane potential by patch clamp electrophysiology analysis; assay type: cell-based
[7] = molecular target: T1, Glutamate NMDA receptor; GRIN1/GRIN2B; assay: Antagonist activity at human GluN1/GluN2B receptor expressed in HEK293 cells assessed as inhibition of L-glutamate induced response at -40 mV membrane potential by patch clamp electrophysiology analysis; assay type: cell-based
[8] = molecular target: T1, Glutamate NMDA receptor; GRIN1/GRIN2B; assay: Antagonist activity at human GluN1/GluN2B receptor expressed in HEK293 cells assessed as inhibition of L-glutamate induced response at -60 mV membrane potential by patch clamp electrophysiology analysis; assay type: cell-based
[9] = Toxicity in male Wistar rat assessed as loss of activity at 20 mg/kg, ip; assay type: organism-based; settings: in vivo
[10] = Toxicity in male Wistar rat assessed as no observed adverse effect level (NOAEL) at 10 mg/kg, ip; assay type: organism-based; settings: in vivo
[11] = Toxicity in male Wistar rat assessed as locomotion at 1 to 10 mg/kg, ip incubated for 15 min by open field test; assay type: organism-based; settings: in vivo, 0.25 h, dose 1-10 mg/kg
[12] = molecular target: T2, Glutamate NMDA receptor; GRIN1/GRIN2A; assay: Antagonist activity at human GluN1/GluN2A receptor expressed in HEK293 cells assessed as inhibition of offset time constant at -60 mV membrane potential by patch clamp electrophysiology analysis relative to control; assay type: cell-based; settings: filed as antagonist, dose 1.0 µM
[13] = molecular target: T1, Glutamate NMDA receptor; GRIN1/GRIN2B; assay: Antagonist activity at human GluN1/GluN2B receptor expressed in HEK293 cells assessed as inhibition of L-glutamate/glycine-induced steady state conditions of the current response at holding - 60 mV potential by measuring onset time constant at 1 to 100 uM incubated for 2 min followed by compound washout measured by patch clamp electrophysiology analysis; assay type: cell-based; settings: filed as antagonist, dose 1-100 µM
[14] = molecular target: T2, Glutamate NMDA receptor; GRIN1/GRIN2A; assay: Antagonist activity at human GluN1/GluN2A receptor expressed in HEK293 cells assessed as inhibition of L-glutamate/glycine-induced steady state conditions of the current response at holding - 60 mV potential by measuring onset time constant at 1 to 100 uM incubated for 2 min followed by compound washout measured by patch clamp electrophysiology analysis; assay type: cell-based; settings: filed as antagonist, dose 1-100 µM
[15] = Toxicity in male Wistar rat assessed as decrease respiration at 20 mg/kg, ip; assay type: organism-based; settings: in vivo
[16] = Toxicity in male Wistar rat assessed as effect on pre-pulse inhibition of acoustic startle response induced deficit at 1 to 10 mg/kg, ip by prepulse inhibition test; assay type: organism-based; settings: in vivo, dose 1-10 mg/kg
[17] = molecular target: T2, Glutamate NMDA receptor; GRIN1/GRIN2A; assay: Antagonist activity at human GluN1/GluN2A receptor expressed in HEK293 cells assessed as inhibition of […] response at 1 uM onset measured by patch clamp electrophysiology analysis; assay type: cell-based; settings: filed as antagonist
[18] = test system: Rattus norvegicus; assay: In vivo neuroprotective activity in NMDA-induced hippocampal lesion male Wistar rat model assessed as decrease in damage score at 30 uM; assay type: functional, organism-based
[19] = molecular target: T1, Glutamate NMDA receptor; GRIN1/GRIN2B; assay: Antagonist activity at human GluN1/GluN2B receptor expressed in HEK293 cells assessed as inhibition of L-glutamate/glycine-induced steady state conditions of the current response at holding - 60 mV potential by measuring offset time constant at 1 to 100 uM incubated for 2 min followed by compound washout measured by patch clamp electrophysiology analysis; assay type: cell-based; settings: filed as antagonist, dose 1-100 µM
[20] = molecular target: T2, Glutamate NMDA receptor; GRIN1/GRIN2A; assay: Antagonist activity at human GluN1/GluN2A receptor expressed in HEK293 cells assessed as inhibition of L-glutamate/glycine-induced steady state conditions of the current response at holding - 60 mV potential by measuring offset time constant at 1 to 100 uM incubated for 2 min followed by compound washout measured by patch clamp electrophysiology analysis; assay type: cell-based; settings: filed as antagonist, dose 1-100 µM
[21] = Toxicity in male Wistar rat assessed as hyperlocomotion at 0.2 mg/kg, ip incubated for 10 min by open field test; assay type: organism-based; settings: in vivo
[22] = Toxicity in male Wistar rat assessed as effect on pre-pulse inhibition of acoustic startle response induced deficit at 0.3 mg/kg, ip mg/kg by prepulse inhibition test; assay type: organism-based; settings: in vivo

Row | Compound | IC50 at 24 h [1] [µM] | inhibition ([2]; filed as antagonist) [%] | inhibition ([3]; filed as antagonist) [%] | inhibition [3] [%] | other results
1 | CNC1c2ccccc2CCc2ccccc21 | 410 | 71 | 82.3 |  | 
2 | OCCNC1c2ccccc2C=Cc2ccccc21 | 333 | 48.8 |  | 38.2 | 
3 | CCNC1c2ccccc2CCc2ccccc21 | 364 | 51.8 |  | 34 | 
4 | CNC1c2ccccc2C=Cc2ccccc21 | 299 | 68.9 | 54.3 |  | 
5 | CC(C)CNC1c2ccccc2CCc2ccccc21 | 92.4 | 91.6 | 76.8 |  | 
6 | CCN(CC)C1c2ccccc2CCc2ccccc21 | 86.4 | 75 | 68.4 |  | 
7 | C1=Cc2ccccc2C(N2CCCC2)c2ccccc21 | > 900 | 85.5 | 48.6 |  | 
8 | COCCNC1c2ccccc2CCc2ccccc21 | 385 | 66.6 |  | 34.9 | 
9 | c1ccc2c(c1)CCc1ccccc1C2N1CCOCC1 | 95.2 |  |  | 6.78 | inhibition [2]: 3.43%
10 | c1ccc2c(c1)CCc1ccccc1C2NC1CC1 | 177 | 53.6 | 40.1 |  | 
11 | C1=Cc2ccccc2C(NC2CCCCC2)c2ccccc21 | 81.3 | 92.4 | 92.1 |  | IC50 [4]: 8.5 µM
12 | CCCCNC1c2ccccc2C=Cc2ccccc21 | 101 | 79.2 | 81.1 |  | 
13 | CNC1(c2ccccc2Cl)CCCCC1=O (stereo not drawn) [KETAMINE] |  |  |  |  | IC50 [5]: 53.3 µM; IC50 [6]: 0.5 µM; IC50 [7]: 15.2 µM; IC50 [8]: 0.51 µM
14 | C1=Cc2ccccc2C(N2CCOCC2)c2ccccc21 | 165 | 57.6 |  | 31.9 | 
15 | c1ccc2c(c1)CCc1ccccc1C2NC1CCCCC1 | 85 | 86 | 79.4 |  | IC50 [4]: 14.4 µM
16 | CCN1CCN(C2c3ccccc3CCc3ccccc32)CC1 | 147 |  |  | 7.64 | inhibition [2]: 5.22%
17 | COCCNC1c2ccccc2C=Cc2ccccc21 | 390 | 60 |  | 35.6 | 
18 | CN1CCN(C2c3ccccc3CCc3ccccc32)CC1 | 122 |  |  | 9.7 | inhibition [2]: 9.49%
19 | CC(C)NC1c2ccccc2CCc2ccccc21 | 263 | 76.9 | 52.2 |  | 
20 | c1ccc2c(c1)CCc1ccccc1C2N1CCCC1 | 97.7 | 62.1 | 49.8 |  | 
21 | c1ccc2c(c1)CCc1ccccc1C2N1CCCCC1 | 73.8 |  |  | 5.4 | inhibition [2]: 5.2%
22 | Cl.OCCNC1c2ccccc2CCc2ccccc21 | 720 | 49.7 | 48 |  | Activity [9]: Toxic; Activity [10]: Non-toxic; Activity [11]: Non-toxic; inhibition [12]: 99%; IC50 [5]: 276 µM; Activity [13]: Active; Activity [14]: Active; IC50 [7]: 215 µM; Activity [15]: Toxic; Activity [16]: Toxic; TIME [17]: 0.000112 h; Activity [18]: Active
23 | CCNC1c2ccccc2C=Cc2ccccc21 | 498 | 59.9 |  | 39.9 | 
24 | CC(C)NC1c2ccccc2C=Cc2ccccc21 | 251 | 76 | 75.6 |  | 
25 | CC(C)CNC1c2ccccc2C=Cc2ccccc21.Cl | 102 | 91.8 | 93.2 |  | Activity [9]: Toxic; Activity [10]: Non-toxic; Activity [19]: Active; Compound Exhibited Slower Time Constant Offset Than 3L; Activity [11]: Non-toxic; inhibition [12]: 99%; IC50 [5]: 22.4 µM; Activity [13]: Active; Activity [14]: Active; IC50 [7]: 11.7 µM; Activity [15]: Toxic; Activity [20]: Active; Compound Exhibited Slower Time Constant Offset Than 3L; Activity [16]: Toxic
26 | C[C@]12N[C@H](Cc3ccccc31)c1ccccc12 [DIZOCILPINE] |  |  |  |  | Activity [21]: Toxic; Activity [22]: Toxic
27 | C1=Cc2ccccc2C(N2CCCCC2)c2ccccc21 | 381 | 58.4 |  | 29.9 | 
28 | C1=Cc2ccccc2C(NC2CC2)c2ccccc21 | 260 | 57.2 | 45 |  | 
29 | CCCCNC1c2ccccc2CCc2ccccc21 | 128 | 85.8 | 76.4 |  | 
